One assay deals with T1, CCR6 (Homo sapiens, UniProt P51684).
T1 construct: Human CD4+CCR6+CXCR3-T cells were isolated from leukopak from healthy donors; endogenous in cells
T1 sequence (P51684 1-374): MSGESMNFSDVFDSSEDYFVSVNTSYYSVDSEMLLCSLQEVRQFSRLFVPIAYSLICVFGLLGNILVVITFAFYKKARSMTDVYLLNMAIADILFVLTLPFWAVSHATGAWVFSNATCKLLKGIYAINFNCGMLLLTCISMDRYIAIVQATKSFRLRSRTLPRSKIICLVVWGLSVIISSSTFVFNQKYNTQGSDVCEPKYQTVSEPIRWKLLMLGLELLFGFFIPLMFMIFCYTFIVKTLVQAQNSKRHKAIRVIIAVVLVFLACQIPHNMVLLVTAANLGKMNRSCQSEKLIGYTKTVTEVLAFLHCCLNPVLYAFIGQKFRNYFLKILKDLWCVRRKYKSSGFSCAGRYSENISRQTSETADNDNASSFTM
Description: CCR6+ T cell chemotaxis assay. Format: cell-based. The source says: Human CD4+CCR6+CXCR3-T cells were isolated from leukopak from healthy donors using EasySep™ Human Th17 Cell Enrichment Kit. […] Day 4 post activation, Dynabeads were removed from the culture. The activated T cells were maintained at 1-2×10^6 cells/mL for 15 days by feeding fresh growth media when needed.
For IC50 determination, the top and bottom of the chemotaxis chamber contained the same concentration of compound. DMSO was kept constant at 0.1% (v/v) in all wells. The final concentration of CCL20 (Peprotech 300-29A) in the bottom chamber is 0.5 nM. The fully assembled chemotaxis plate was placed in a cell culture incubator at 37° C., 5% CO2 for 1 h. After incubation, the top filter was removed, followed by a quick freeze of the bottom chamber at −80° C. for 1 h. The migrated cells in the bottom chamber were stained with CyQUANT dye (Life Technologies, C7026) for cell number determination.
IC50 values for compounds of the present invention (Table 1a) were determined by the non-linear regression analysis of dose response curves.

The target in a further assay is T2, CXCR2 (Homo sapiens, UniProt P25025).
T2 construct: Human neutrophils were purified from freshly drawn human whole blood; endogenous in cells; host or cells: primary human neutrophils from freshly drawn whole blood
T2 sequence (P25025 1-360): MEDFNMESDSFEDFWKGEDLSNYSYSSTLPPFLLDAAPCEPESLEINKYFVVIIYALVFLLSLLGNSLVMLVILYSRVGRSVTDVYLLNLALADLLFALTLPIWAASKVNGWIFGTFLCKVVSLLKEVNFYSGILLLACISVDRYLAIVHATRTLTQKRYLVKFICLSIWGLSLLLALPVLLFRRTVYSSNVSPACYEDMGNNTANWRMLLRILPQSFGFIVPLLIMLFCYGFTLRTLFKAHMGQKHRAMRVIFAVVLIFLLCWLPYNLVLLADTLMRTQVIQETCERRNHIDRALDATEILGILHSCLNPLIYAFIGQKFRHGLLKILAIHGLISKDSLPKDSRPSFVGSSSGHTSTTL
As to the kind of experiment: Human neutrophil chemotaxis assay. The note with it: R = H; read-out: CXCR2 Neutrophil, GRO[…] Chemotaxis IC50. Format: cell-based. How it is done: After 30 min, the labeled neutrophils were washed twice in chemotaxis buffer, resuspended as before and used immediately. For the assay, test compounds were tested in a dose-response format to determine IC50. Labeled neutrophils (50 μL) were pre-incubated with diluted test compound (50 μL) for 30 min in a 96-well plate (Greiner). Next, 100 μL of diluted compound was mixed with 100 μL of GROα (Peprotech #300-11, 2 nM) in the bottom portion of the chemotaxis chamber.
The top portion (insert) of the chemotaxis system containing the FluoroBlok porous membrane was then assembled together. 50 μL of the pre-incubated neutrophils were added to the FluoroBlok insert (top portion) and chemotaxis measured by the neutrophils ability to migrate through the membrane towards the specific CXCR2 ligand, GROα.

Molecules are shown by their SMILES. pIC50: −log10 of the molar value.

With `Cc1cn(C)nc1[C@H](Nc1c(Nc2ccnc(C(=O)N(C)C)c2O)c(=O)c1=O)C1(C)CC1` [Example 20, (R)-4-((2-(((1,4-Dimethyl-1H-pyrazol-3-yl)(1-methylcyclopropyl)methyl)amino)-3,4-dioxocyclobut-1-en-1-yl)amino)-3-hydroxy-N,N-dimethylpicolinamide], on CCR6 (T cell chemotaxis compared to neutrophil chemotaxis), the “T Cell Chemotaxis Selectivity” value is recorded as “NS** (Not selective for T cell chemotaxis compared to neutrophil chemotaxis)”. `CN(C)C(=O)c1nccc(Nc2c(N[C@@H](c3ccn(C)n3)C3(C)CCCC3)c(=O)c2=O)c1O` [drawing 157 (R = H)]: the pIC50 (usually the negative decadic logarithm of the IC50, by convention in mol/L) at CCR6 (R = H, read-out: CCR6 T cell, CCL20 Chemotaxis IC50) is 7.72; at CXCR2, 7.38.

Consider `Cc1nc([C@H](Nc2c(Nc3ccnc(C(=O)N(C)C)c3O)c(=O)c2=O)C2(C)CCCC2)co1` [drawing 159 (R = H)], for which the “T Cell Chemotaxis Selectivity” value at CCR6 (R = H) is listed as “NS* (Not selective for T cell chemotaxis compared to neutrophil chemotaxis)”.

These data come from patent US20250296920A1, “FORMULATIONS COMPRISING N-SUBSTITUTED-DIOXOCYCLOBUTENYLAMINO-3-HYDROXY-PICOLINAMIDE COMPOUNDS AND USES THEREOF” (Pfizer Inc., priority 2024, published 2025).
